Experimental data published in patent publication US4231928A, “Antibacterial agents” (priority 1979, dated 1980).
Values after ≈ are worked out from the molar mass of the structure shown. Read-outs that look alike come from different tables or passages of the source.

Columns and labels:
[1] = test system: S. aureus Smith; assay: In vivo activity in experimental infection in mice, S. aureus Smith; details: single; for Survival/Tested: 100×LD50 challenge; for ED50: Staphylococcus aureus, sc, dose required to protect 50% of the infected mice, read-out: PD50
Experimental: (§1) BB-P598 was evaluated in vivo in experimental infections in mice. The pathogenic bacteria employed were P. aeruginosa A9843, E. coli Juhl and S. aureus Smith. Mice were challenged intraperitoneally with a 100×LD50 dose of the pathogens in a 5% suspension of hog gastric mucin. The penicillin was administered subcutaneously as a single treatment, just after the bacterial challenge.
(§2) PD50 = Protective Dose50 , i.e. the dose required to give
(§3) protection to 50% of the infected mice.

[2] = test system: P. aeruginosa; assay: Tube dilution (Nutrient broth), P. aeruginosa; type: cell-based; details: Pseudomonas aeruginosa
Experimental: (§4) The MIC's of BB-P598 against various organisms were also determined by the tube dilution method (Nutrient broth), and the results, compared with sulbenicillin, are shown in Table 3.

[3] = test system: P. aeruginosa A9843; assay: In vivo activity in experimental infection in mice, P. aeruginosa A9843; details: single; for Survival/Tested: 100×LD50 challenge; for ED50: Pseudomonas aeruginosa, A9843, sc, dose required to protect 50% of the infected mice, read-out: PD50
Experimental: as §1, §2, §3

[4] = test system: S. pyogenes; assay: Tube dilution (Nutrient broth), S. pyogenes; type: cell-based; details: Streptococcus pyogenes, Sp-3 S. pyogenes A9604, Table 3
Experimental: as §4

[5] = test system: P. morganii; assay: Tube dilution (Nutrient broth), P. morganii; type: cell-based; details: Morganella morganii
Experimental: as §4

[6] = test system: P. aeruginosa A9843; assay: Effect of inoculum size on MBC and MBC/MIC ratio; type: cell-based; details: Table 5; for MBC: Pseudomonas aeruginosa, 99% killed
Experimental: (§5) The effect of inoculum size of the MIC and MBC (Minimum Bacteriacidal Concentration) of BB-P598 against P. aeruginosa A9843 also was determined. The MIC's were determined by the serial tube dilution method in Nutrient Broth using four levels of inoculum size (5.3×10^3, 5.3×10^4, 5.3×10^5 and 5.3×10^6 cells/ml), along with sulbenicillin as a reference standard.
Subsequent to the above MIC determinations, aliquots from the non-turbid tubes were added to Nutrient Agar plates to determine the MBC value. The MBC was assigned to the lowest concentration which killed 99% of the original cell population.

[7] = test system: D. pneumoniae; assay: Tube dilution (Nutrient broth), D. pneumoniae; type: cell-based; details: Streptococcus pneumoniae, Dp-4 D. pneumoniae A9585, Table 3
Experimental: as §4

[8] = test system: E. coli; assay: Tube dilution (Nutrient broth), E. coli; type: cell-based; details: Escherichia coli
Experimental: as §4

[9] = test system: S. aureus Smith; assay: MIC of the infecting strain with the in vivo test, S. aureus Smith; type: cell-based; details: Staphylococcus aureus, Table 7, read-out: MC
[10] = test system: K. pneumoniae; assay: Tube dilution (Nutrient broth), K. pneumoniae; type: cell-based; details: Klebsiella pneumoniae
[11] = test system: S. marcescens; assay: Tube dilution (Nutrient broth), S. marcescens; type: cell-based; details: Serratia marcescens
Experimental: as §4

[12] = test system: P. aeruginosa A9843; assay: MIC of the infecting strain with the in vivo test, P. aeruginosa A9843; type: cell-based; details: Pseudomonas aeruginosa, Table 7
[13] = test system: E. coli Juhl; assay: In vivo activity in experimental infection in mice, E. coli Juhl; details: single; for Survival/Tested: 100×LD50 challenge; for ED50: Escherichia coli, sc, dose required to protect 50% of the infected mice, read-out: PD50
Experimental: as §1, §2, §3

[14] = test system: E. cloacae; assay: Tube dilution (Nutrient broth), E. cloacae; type: cell-based; details: Enterobacter cloacae, El-1 E. cloacae A9656, Table 3
Experimental: as §4

[15] = test system: E. coli Juhl; assay: MIC of the infecting strain with the in vivo test, E. coli Juhl; type: cell-based; details: Escherichia coli, Table 7
[16] = test system: Pseudomonas aeruginosa; details: prior art penicillins; cited from earlier work
[17] = test system: S. enteritidis; assay: Tube dilution (Nutrient broth), S. enteritidis; type: cell-based; details: Salmonella enterica, Se-1 S. enteritidis A9531, Table 3
Experimental: as §4

[18] = test system: P. mirabilis; assay: Tube dilution (Nutrient broth), P. mirabilis; type: cell-based; details: Proteus mirabilis, Pm-2 P. mirabilis A9900, Table 3
Experimental: as §4

[19] = test system: S. aureus; assay: Tube dilution (Nutrient broth), S. aureus; type: cell-based; details: Staphylococcus aureus
Experimental: as §4

[20] = test system: P. aeruginosa A9843; assay: Effect of inoculum size on MIC, serial tube dilution (Nutrient Broth); type: cell-based; details: for MIC ratio b/a: inoculum 5.3 × 10^5 / 5.3 × 10^4 cell/ml; for MIC ratio c/a: inoculum 5.3 × 10^6 / 5.3 × 10^4 cell/ml
Experimental: as §5

[21] = test system: S. aureus and the Gram-negative organisms except Pseudomonas; assay: Agar dilution, activity against S. aureus and Gram-negative organisms except Pseudomonas; type: cell-based; details: most of the 6 strains of S. aureus and 19 Gram-negative strains except Pseudomonas
Experimental: (§6) The Minimum Inhibitory Concentrations (MIC) for sodium 6-[D-(-)-α-phenyl-α-(7-hydroxy-4-oxo-4H-pyrimido[1,2-b]pyridazin-3-ylcarboxamido)acetamido]penicillanate (BB-P598) and sulbenicillin were determined by the serial twofold agar dilution method using Steers' apparatus on Mueller-Hinton agar plates against 31 test organisms for the primary screening (Table 1) and also against 61 strains of Pseudomonas aeruginosa for the secondary evaluation (Table 2).

[22] = test system: Pseudomonas; assay: Agar dilution, activity against Pseudomonas strains; type: cell-based
Experimental: as §6

[23] = Pa-13 P. aeruginosa A9843, Table 3
[24] = Pa-19 P. aeruginosa A20229, Table 3
[25] = Pa-57 P. aeruginosa A20546, Table 3
[26] = A9843, inoculum 5.3 × 10^3 cell/ml
[27] = A9843, inoculum 5.3 × 10^4 cell/ml
[28] = Kp-3 K. pneumoniae A9977, Table 3
[29] = Kp-4 K. pneumoniae A15130, Table 3
[30] = Sa-2 S. aureus Smith +50% serum, Table 3
[31] = Sa-11 S. aureus BX-1633 A9606, Table 3
[32] = Sa-44 S. aureus A15097, Table 3
[33] = Pseudomonas aeruginosa, A9843, inoculum 5.3 × 10^4 cell/ml, Nutrient Broth, Table 4, read-out: MIC (a)
[34] = Pseudomonas aeruginosa, A9843, inoculum 5.3 × 10^4 cell/ml, Table 5, read-out: MIC
[35] = Pseudomonas aeruginosa, A9843, inoculum 5.3 × 10^6 cell/ml, Nutrient Broth, Table 4, read-out: MIC (c)

CC1(C)S[C@@H]2[C@H](NC(=O)C(c3ccccc3)S(=O)(=O)O)C(=O)N2[C@H]1C(=O)O (stereo partly drawn) [Sulbenicillin, reference compound]
Survival/Tested ([1]; 0.4 mg/kg sc): 0/5 | Survival/Tested ([1]; 1.6 mg/kg sc): 0/5 | Survival/Tested ([1]; 6.3 mg/kg sc): 5/5 | Survival/Tested ([1]; 25 mg/kg sc): 5/5 | ED50 [1]: 3.1 mg/kg | MIC [2, 23]: 25 µg/mL (≈ 60.3 µM) | MIC [2, 24]: > 100 µg/mL | MIC [2, 25]: 25 µg/mL (≈ 60.3 µM) | Survival/Tested ([3]; 1.6 mg/kg sc): 0/5 | Survival/Tested ([3]; 6.3 mg/kg sc): 0/5 | Survival/Tested ([3]; 25 mg/kg sc): 0/5 | Survival/Tested ([3]; 100 mg/kg sc): 2/5 | Survival/Tested ([3]; 400 mg/kg sc): 4/5 | ED50 [3]: 140 mg/kg | MIC [4]: 0.31 µg/mL (≈ 0.748 µM) | MIC [5]: 12.5 µg/mL (≈ 30.2 µM) | MBC [6, 26]: 100 µg/mL | MBC [6, 27]: 200 µg/mL | MBC/MIC ([6]; inoculum 5.3 × 10^3 cell/ml): 4 | MBC/MIC ([6]; inoculum 5.3 × 10^4 cell/ml): 4 | MIC [7]: 0.08 µg/mL (≈ 0.193 µM) | MIC ([8]; Ec-1 E. coli NIHJ, Table 3): 6.3 µg/mL (≈ 15.2 µM) | MIC ([8]; Ec-58 E. coli A9675, Table 3): 100 µg/mL (≈ 241 µM) | MIC [9]: 6.3 µg/mL | MIC [10, 28]: 6.3 µg/mL (≈ 15.2 µM) | MIC [10, 29]: > 100 µg/mL | MIC [11]: 25 µg/mL (≈ 60.3 µM) | MIC [12]: 25 µg/mL | Survival/Tested ([13]; 1.6 mg/kg sc): 0/5 | Survival/Tested ([13]; 6.3 mg/kg sc): 1/5 | Survival/Tested ([13]; 25 mg/kg sc): 5/5 | Survival/Tested ([13]; 100 mg/kg sc): 5/5 | ED50 [13]: 9.5 mg/kg | MIC [14]: 50 µg/mL (≈ 121 µM) | MIC [15]: 25 µg/mL | potency against Pseudomonas aeruginosa (in words) [16]: only a relatively low potency | MIC [17]: 1.6 µg/mL (≈ 3.86 µM) | MIC [18]: 0.8 µg/mL (≈ 1.93 µM) | MIC [19, 30]: 3.1 µg/mL (≈ 7.48 µM) | MIC ([19]; Sa-2 S. aureus Smith A9537, Table 3): 3.1 µg/mL (≈ 7.48 µM) | MIC [19, 31]: 12.5 µg/mL (≈ 30.2 µM) | MIC [19, 32]: 25 µg/mL (≈ 60.3 µM) | MIC [20, 33]: 50 µg/mL (≈ 121 µM) | MIC [20, 34]: 50 µg/mL (≈ 121 µM) | MIC [20, 35]: > 400 µg/mL | MIC ([20]; inoculum 5.3 × 10^3 cell/ml, Table 5): 25 µg/mL (≈ 60.3 µM) | MIC ratio b/a ([20]; Table 4): 4 | MIC ratio c/a ([20]; Table 4): > 8

CC1(C)S[C@@H]2[C@H](NC(=O)C(C(=O)O)c3ccccc3)C(=O)N2[C@H]1C(=O)O (stereo partly drawn) [Carbenicillin, reference compound]
potency against Pseudomonas aeruginosa (in words) [16]: only a relatively low potency

CC1(C)S[C@@H]2[C@H](NC(=O)[C@H](NC(=O)c3cnc4ccc(O)nn4c3=O)c3ccccc3)C(=O)N2[C@H]1C(=O)O [BB-P598, sodium 6-[D-(-)-α-phenyl-α-(7-hydroxy-4-oxo-4H-pyrimido[1,2-b]pyridazin-3-ylcarboxamido)acetamido]penicillanate]
Survival/Tested ([1]; 1.6 mg/kg sc): 0/5 | Survival/Tested ([1]; 6.3 mg/kg sc): 5/5 | Survival/Tested ([1]; 25 mg/kg sc): 5/5 | Survival/Tested ([1]; 100 mg/kg sc): 5/5 | ED50 [1]: 3.1 mg/kg | MIC [2, 23]: 6.3 µg/mL | MIC [2, 24]: 6.3 µg/mL | MIC [2, 25]: 3.1 µg/mL | Survival/Tested ([3]; 1.6 mg/kg sc): 0/5 | Survival/Tested ([3]; 6.3 mg/kg sc): 1/5 | Survival/Tested ([3]; 25 mg/kg sc): 1/5 | Survival/Tested ([3]; 100 mg/kg sc): 3/5 | ED50 [3]: 54 mg/kg | MIC [4]: 0.08 µg/mL | MIC ([5]; Pg-8 P. morganii A15153, Nutrient broth, Table 3, read-out: MIC): > 100 µg/mL | MBC [6, 26]: 50 µg/mL | MBC [6, 27]: > 100 µg/mL | MBC/MIC ([6]; inoculum 5.3 × 10^3 cell/ml): 8 | MBC/MIC ([6]; inoculum 5.3 × 10^4 cell/ml): > 8 | MIC [7]: 0.01 µg/mL | MIC ([8]; Ec-1 E. coli NIHJ, Table 3): 6.3 µg/mL | MIC ([8]; Ec-58 E. coli A9675, Table 3): 50 µg/mL | MIC [9]: 3.1 µg/mL | MIC [10, 28]: 12.5 µg/mL | MIC [10, 29]: > 100 µg/mL | MIC ([11]; Sm-1 S. marcescens A20019, Nutrient broth, Table 3, read-out: MIC): 50 µg/mL | activity relative to sulbenicillin (in words) [21]: equal to or less active than sulbenicillin | MIC [12]: 6.3 µg/mL | Survival/Tested ([13]; 1.6 mg/kg sc): 0/5 | Survival/Tested ([13]; 6.3 mg/kg sc): 1/5 | Survival/Tested ([13]; 25 mg/kg sc): 2/5 | Survival/Tested ([13]; 100 mg/kg sc): 3/5 | ED50 [13]: 40 mg/kg | MIC [14]: 100 µg/mL | MIC [15]: 25 µg/mL | mean % relative activity to sulbenicillin ([22]; 6 strains of Pseudomonas in Table 1): 713% | activity relative to sulbenicillin (in words) ([22]; Pseudomonas): significantly more active than sulbenicillin | MIC [17]: 3.1 µg/mL | MIC [18]: 6.3 µg/mL | MIC [19, 30]: 1.6 µg/mL | MIC [19, 31]: 50 µg/mL | MIC [19, 32]: 100 µg/mL | MIC ([20]; Pseudomonas aeruginosa, A9843, inoculum 5.3 × 10^3 cell/ml, Nutrient Broth, Table 4, read-out: MIC): 6.3 µg/mL | MIC ([20]; Pseudomonas aeruginosa, A9843, inoculum 5.3 × 10^3 cell/ml, Table 5, read-out: MIC): 6.3 µg/mL | MIC [20, 33]: 12.5 µg/mL | MIC [20, 34]: 12.5 µg/mL | MIC ([20]; Pseudomonas aeruginosa, A9843, inoculum 5.3 × 10^5 cell/ml, Nutrient Broth, Table 4, read-out: MIC (b)): ≤ 25 µg/mL | MIC [20, 35]: > 100 µg/mL | MIC ratio b/a ([20]; Table 4): 2 | MIC ratio c/a ([20]; Table 4): > 8
